Read-outs that look alike come from different tables or passages of the source.
Columns and labels:
[1] = tested on: ppMlc (T18/S19) levels in A7R5 cells; assay: A7R5 in-cell ELISA assay (ppMlc); type: cell-based, rat; conditions: Rattus norvegicus, A7R5, A7R5 cells
Method in brief: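 Rat aortic smooth muscle A7R5 cells in DMEM with 10% FBS, seeded 24 h, then treated 90 min with 9-point 2-fold compound dilutions. ppMlc (T18/S19) measured by colorimetric in-cell ELISA; cellular IC50 from nonlinear regression curve fit.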

[2] = tested on: bleomycin induced lung fibrosis; assay: Bleomycin induced lung fibrosis in mice (therapeutic administration); type: in vivo, mouse; conditions: oral once daily Day 7 to Day 20
Protocol: Bleomycin induced lung fibrosis in mice (therapeutic administration): Male C57B/L6 mice were housed for acclimation for no less than 7 days. After acclimation period, animals were randomly assigned to treatment groups. On day 0, mice were anesthetized with 5% isoflurane by inhalation for 10-15 mins and then suspended by their front teeth on a wire attached to a fixed animal operating plate. 50 μL of saline or bleomycin solution was administered via intratracheal instillation. Mice in treatment groups were intratracheally instilled with bleomycin hydrochloride (BLM) 2.0 U/kg (mg/kg) in sterile saline. On day 7 following bleomycin administration, half of the animals in vehicle group were sacrificed to establish a baseline for the level of fibrosis at the treatment initiation. Mice in normal control group received saline by p.o. once daily from Day 7 to Day 20. Treatment group mice received the compound dosed orally once daily from Day 7 to Day 20. On Day 20, 2-3 hours posted the last dose, all mice were sacrificed. Lungs were gently lavaged via the tracheal cannula with 0.8 mL of PBS containing 1% BSA and 0.6 mM EDTA. […] The activity of ROCK inhibitors in attenuating pulmonary fibrosis in a therapeutic dosing setting was assessed in a bleomycin-induced model, following intratracheal bleomycin installation to induce lung tissue damage and consequent fibrosis of the lung. […]

[3] = tested on: ACTA2-promoter-driven-luciferase in NIH3T3 cells; assay: NIH3T3 Acta2-promoter driven-luciferase assay; type: cell-based; conditions: Mus musculus, plus TGFβ1, 24 hr, read-out: NIH3T3, Acta2-luc, IC50
Method in brief: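 Stable NIH3T3 line carrying luciferase reporter under human ACTA2 promoter (−1000-1 bp); confluent cells given 9-point compound dilutions with TGFβ1 for 24 hr. Lysed cells read for luciferase; IC50 from nonlinear regression fit.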

[4] = tested on: human oligodendrocyte/neuron progenitor cells; assay: Aβ 1-42 induced cell death assay on human oligodendrocyte/neuron progenitors; type: cell-based; conditions: 3 μM, 10.5 μM Aβ1-42, 24 hour
Protocol: Aβ 1-42 induced cell death assay on human oligodendrocyte/neuron progenitors in 96-well plate. Cells were seeded on poly-L-ornithine and laminin coated plates at a density of 8,000 cells per well and maintained in expansion media until Day 3, then media was replaced with fresh spontaneous differentiation media containing testing compounds and IncuCyte Annexin V Red Reagent (1:200 dilution) (Essen BioScience Cat. No. 4641). After the pre-incubation period of 30 minutes at 37° C., 10.5 μM Aβ 1-42 (Bachem Product No. H-8146) was added directly in the pretreatment solution. Neurite length and total Annexin V positive area were analyzed by IncuCyte S3 Live Cell Analysis System every 2 hours.
In addition to promoting neuroregeneration, ROCK inhibitors have been reported to exert neuroprotective effects and prolong neuronal survival. Here we test the neuroprotective effect of ROCK inhibitors against Aβ1-42. Human oligodendrocyte/neuron progenitor cells were pre-incubated with ROCK inhibitors for 30 minutes before exposing to 10.5 μM Aβ1-42. IncuCyte Annexin V Red Reagent was added to culture media to label cell apoptosis. Pictures were taken by IncuCyte S3 and total Annexin V positive area was analyzed by IncuCyte S3 base software. Neurite length was quantified by IncuCyte NeuroTrack Software Module, see FIGS. 3b and 3c.

[5] = tested on: human oligodendrocyte/neuron progenitor cells; assay: Chondroitin Sulfate Proteoglycan (CSPG) assay on human oligodendrocyte/neuron progenitors; type: cell-based; conditions: 1 μM and 3 μM, 72 hour
Protocol: Chondroitin Sulfate Proteoglycan (CSPG) assay on human oligodendrocyte/neuron progenitors in 96-well plate. […] Cells were seeded on the coated plates at a density of 6,000 cells per well in expansion media. The following day the expansion media was replaced with fresh spontaneous differentiation media containing testing compounds. Cells were imaged and neurite length was analyzed by IncuCyte S3 Live Cell Analysis System every 4 hours.

[6] = Brain and plasma concentrations in mouse by HPLC/MS/MS; type: in vivo; conditions: 2.5 mg/kg IV
Protocol: Brain and plasma concentrations of select ROCK inhibitors were evaluated in mouse by HPLC/MS/MS at 15 min and 2 hrs following 2.5 mg/kg IV drug administration.

IC50 ([1]; Table 2, read-out: pMLC IC50 (nM) A7R5): 120 nM
IC50 ([1]; ppMlc (T18/S19), in-cell ELISA, read-out: ppMlc IC50): 86 nM
concentration at 0.25 hr ([6]; brain, 0.25 hr, read-out: Mean Conc. at 0.25 hr, Brain): 541 ng/g
concentration at 2 hr ([6]; brain, 2 hr, read-out: Mean Conc. at 2 hr, Brain): 76.6 ng/g
concentration at 0.25 hr ([6]; plasma, 0.25 hr, read-out: Mean Conc. at 0.25 hr, Plasma): 268 ng/mL
concentration at 2 hr ([6]; plasma, 2 hr, read-out: Mean Conc. at 2 hr, Plasma): 25.7 ng/mL
Kp at 0.25 h ([6]; brain/plasma, 0.25 hr, read-out: Mean Brain/Plasma Ratio at 0.25 hr): 2.01
Kp at 2 h ([6]; brain/plasma, 2 hr, read-out: Mean Brain/Plasma Ratio at 2 hr): 2.99
SMILES: CNC(C(=O)Nc1ccc(-c2cn[nH]c2)cc1)c1cccc(OC)c1 (stereo not drawn) [Example 2, N-(4-(1H-pyrazol-4-yl)phenyl)-2-(3-methoxyphenyl)-2-(methylamino)acetamide]
collagen amounts in the lungs (Masson's trichrome) [2]: significantly lower
IC50 [3]: 352 nM
Aβ1-42 induced cell death (Annexin V area) [4]: significantly protect
CSPG mediated neurite outgrowth arrest [5]: significantly counteract

Reference: patent US11479533B2, “Inhibitors of Rho associated coiled-coil containing protein kinase” (KADMON CORPORATION, LLC, priority 2017, dated 2022)
